Test results published in patent publication US20040248887A1, “Inhibitors of cathepsin S” (IRM LLC, priority 2003, published 2004).

target: Cathepsin S (Homo sapiens, UniProt P25774); experiment: Cathepsin S inhibition, fluorogenic peptide substrate kinetic assay; assay type: biochemical; settings: Table II; Cathepsin S inhibition constant, pH5.5; read-out: Ki Cat. S
Outline: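 Ki values derive from apparent constants fitted to progress curves, corrected for competition with substrate via [S] and Km. Kinetics were monitored at 380 nm excitation/450 nm emission, after substrate addition (Ac-HPVK-ACC, 50 μM final) to start the reaction.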

Sequence of Cathepsin S (P25774 115-331, species assumed): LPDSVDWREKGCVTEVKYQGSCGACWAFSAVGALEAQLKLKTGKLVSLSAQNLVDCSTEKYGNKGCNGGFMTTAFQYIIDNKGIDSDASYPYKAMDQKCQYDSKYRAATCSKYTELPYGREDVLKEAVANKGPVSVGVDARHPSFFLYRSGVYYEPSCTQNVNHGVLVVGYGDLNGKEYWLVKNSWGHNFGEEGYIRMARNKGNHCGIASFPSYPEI

Ki | Molecule
< 100 nM | COCC(=O)N[C@@H](CC1CCCCC1)C(=O)N[C@@H](C)CNc1ccc(OC(F)(F)F)cc1 [Compound 124, 3-Cyclohexyl-2-(S)-(2-methoxy-acetylamino)-N-[1-(S)-methyl-2-(4-trifluoromethoxy-phenylamino)-ethyl]-propionamide]
< 100 nM | C[C@@H](CNc1ccc(S(C)(=O)=O)cc1)NC(=O)[C@H](CC(C)(C)C)NC(=O)c1ccc(-c2cccc(F)c2)o1 [Compound 129, 5-(3-Fluoro-phenyl)-furan-2-carboxylic acid {1-(S)-[2-(4-methanesulfonyl-phenylamino)-1-(S)-methyl-ethylcarbamoyl]-3,3-dimethyl-butyl}-amide]
< 100 nM | O=C(N[C@@H](CC1CCCCC1)C(=O)N[C@@H](COCc1ccccc1)CN1CCc2cc(F)ccc21)c1ccc(-c2cccc(C(F)(F)F)c2)o1 [Compound 152, 5-(3-Trifluoromethyl-phenyl)-furan-2-carboxylic acid {1-(S)-[1-(R)-benzyloxymethyl-2-(5-fluoro-2,3-dihydro-indol-1-yl)-ethylcarbamoyl]-2-cyclohexyl-ethyl}-amide]
< 1000 nM | O=C(N[C@@H](CC1CCCCC1)C(=O)NCCN1CCc2cc(F)ccc21)c1ccc(OC2CCNCC2)cc1 [Compound 67, N-(S)-{2-cyclohexyl-1-[2-(5-fluoro-2,3-dihydro-indol-1-yl)-ethylcarbamoyl]-ethyl}-4-(piperidin-4-yloxy)-benzamide]
< 100 nM | C[C@@H](CN1c2ccc(F)cc2CC1(C)C)NC(=O)[C@H](CC1CCCCC1)NC(=O)C1CCOCC1 [Compound 139, Tetrahydropyran-4-carboxylic acid {2-cyclohexyl-1-(S)-[2-(5-fluoro-2,2-dimethyl-2,3-dihydro-indol-1-yl)-1-(S)-methyl-ethylcarbamoyl]-ethyl}-amide]
< 100 nM | C[C@@H](CN1CC(C)(C)c2cc(F)ccc21)NC(=O)[C@H](CC1CCCCC1)NC(=O)O[C@@H]1CCOC1 [Compound 216, {2-Cyclohexyl-1-(S)-[2-(5-fluoro-3,3-dimethyl-2,3-dihydro-indol-1-yl)-1-(S)-methyl-ethylcarbamoyl]-ethyl}-carbamic acid (R)-tetrahydrofaran-3-yl ester]
< 100 nM | C[C@@H](CN1CC(C)(C)c2cc(F)ccc21)NC(=O)[C@H](CC1CCCCC1)NC(=O)O[C@H]1CCOC1 [Compound 217, (S,S)-{2-Cyclohexyl-1-[2-(5-fluoro-3,3-dimethyl-2,3-dihydro-indol-1-yl)-1-methyl-ethylcarbamoyl]-ethyl}-carbamic acid (S)-tetrahydro-furan-3-yl ester]
< 100 nM | COc1cccc(C(=O)N[C@@H](CC(C)(C)C)C(=O)N[C@@H](Cc2nnn[nH]2)CN2CCc3cc(F)ccc32)c1 [Compound 166, N-{1-(S)-[2-(5-Fluoro-2,3-dihydro-indol-1-yl)-1-(S)-(1H-tetrazol-5-ylmethyl)-ethylcarbamoyl]-3,3-dimethyl-butyl}-3-methoxy-benzamide]
< 100 nM | COc1ccc(NC[C@H](C)NC(=O)[C@H](CC2CCCCC2)NC(=O)c2ccc(-c3ccc(F)cc3)o2)cc1 [Compound 105, 5-(4-Fluoro-phenyl)-furan-2-carboxylic acid {2-cyclohexyl-1-(S)-[2-(4-methoxy-phenylamino)-1-(S)-methyl-ethylcarbamoyl]-ethyl}-amide]
< 100 nM | COc1ccc(-c2ccc(S(=O)(=O)N[C@@H](CC3CCCCC3)C(=O)NCCN3CCc4cc(F)ccc43)cc2)cc1 [Compound 238, (S)-3-Cyclohexyl-N-[2-(5-fluoro-2,3-dihydro-indol-1-yl)-ethyl]-2-(4′-methoxy-biphenyl-4-sulfonylamino)-propionamide]
< 100 nM | C[C@@H](CNc1ccccc1Cl)NC(=O)[C@H](CC1CCCCC1)NC(=O)c1ccc(-c2cccc(F)c2)o1 [Compound 113, 5-(3-Fluoro-phenyl)-furan-2-carboxylic acid {1-(S)-[2-(2-chloro-phenylamino)-1-(S)-methyl-ethylcarbamoyl]-2-cyclohexyl-ethyl}-amide]
< 100 nM | C[C@@H](CNc1ccc(OC(F)(F)F)cc1)NC(=O)[C@H](CC1CCCCC1)NC(=O)c1cc(-c2ccc(F)cc2)no1 [Compound 146, 3-(4-Fluoro-phenyl)-isoxazole-5-carboxylic acid {2-cyclohexyl-1-(S)-[1-(S)-methyl-2-(4-trifluoromethoxy-phenylamino)-ethylcarbamoyl]-ethyl}-amide]
< 100 nM | O=C(NC(C(=O)N[C@@H](COCc1ccccc1)CN1CCc2cc(F)ccc21)c1ccc(Cl)cc1Cl)c1ccco1 (mixture of isomers) [Compound 207, N-(R,S)-((3-(benzyloxy)-1-(5-fluoroindolin-1-yl)propan-2-(R)-ylcarbamoyl)(2,4-dichlorophenyl)methyl)furan-2-carboxamide]
< 100 nM | C[C@@H](CNc1ccc(OC(F)(F)F)cc1)NC(=O)[C@H](CC1CCCCC1)NC(=O)OC1CCOCC1 [Compound 184, (S,S)-{2-Cyclohexyl-1-[1-methyl-2-(4-trifluoromethoxy-phenylamino)-ethylcarbamoyl]-ethyl}-carbamic acid tetrahydro-pyran-4-yl ester]
< 100 nM | C[C@@H](CNc1cccc(S(C)(=O)=O)c1)NC(=O)[C@H](CC1CCCCC1)NC(=O)c1ccc(-c2ccc(F)cc2)o1 [Compound 106, 5-(4-Fluoro-phenyl)-furan-2-carboxylic acid {2-cyclohexyl-1-(S)-[2-(3-methanesulfonyl-phenylamino)-1-(S)-methyl-ethylcarbamoyl]-ethyl}-amide]
< 100 nM | C[C@@H](CNc1cccc(C#N)c1)NC(=O)[C@H](CC1CCCCC1)NC(=O)c1ccc(-c2cccc(F)c2)o1 [Compound 100, 5-(3-Fluoro-phenyl)-furan-2-carboxylic acid {1-(S)-[2-(3-cyano-phenylamino)-1-(S)-methyl-ethylcarbamoyl]-2-cyclohexyl-ethyl}-amide]
< 1000 nM | CS(=O)(=O)N1CCC(C(=O)N[C@@H](CC2CCCCC2)C(=O)NCCN2CCc3cc(F)ccc32)CC1 [Compound 77, 1-Methanesulfonyl-piperidine-4-carboxylic acid (S)-{2-cyclohexyl-1-[2-(5-fluoro-2,3-dihydro-indol-1-yl)-ethylcarbamoyl]-ethyl}-amide]
< 1000 nM | O=C(NCCN1CCc2cc(F)ccc21)[C@H](CC1CCCCC1)NS(=O)(=O)c1cc(Cl)c(Cl)s1 [Compound 258, (S)-3-Cyclohexyl-2-(4,5-dichloro-thiophene-2-sulfonylamino)-N-[2-(5-fluoro-2,3-dihydro-indol-1-yl)-ethyl]-propionamide]
< 1000 nM | C[C@@H](CN1CC(C)(C)c2cc(F)ccc21)NC(=O)[C@H](CC(C)(C)C)NC(=O)C1CCOCC1 [Compound 270, Tetrahydro-pyran-4-carboxylic acid {1-(S)-[2-(5-fluoro-3,3-dimethyl-2,3-dihydro-indol-1-yl)-1-(S)-methyl-ethylcarbamoyl]-3,3-dimethyl-butyl}-amide]
< 100 nM | C[C@@H](CNc1ccc(SC(F)(F)F)cc1)NC(=O)[C@H](CC1CCCCC1)NC(=O)c1ccc(-c2cccc(F)c2)o1 [Compound 119, 5-(3-Fluoro-phenyl)-furan-2-carboxylic acid {2-cyclohexyl-1-(S)-[1-(S)-methyl-2-(4-trifluoromethylsulfanyl-phenylamino)-ethylcarbamoyl]-ethyl}-amide]
< 1000 nM | CC(C)(C)C[C@H](NC(=O)OC(C)(C)C)C(=O)N[C@@H](CC#N)CN1CCc2cc(F)ccc21 [Compound 164, {1-(S)-[2-Cyano-1-(S)-(5-fluoro-2,3-dihydro-indol-1-ylmethyl)-ethylcarbamoyl]-3,3-dimethyl-butyl}-carbamic acid tert-butyl ester]
< 1000 nM | O=C(NC(C(=O)NC(CO)CN1CCc2cc(F)ccc21)c1ccc(Cl)cc1Cl)c1ccco1 [Compound 212, N-(S)-((3-(5-fluoroindolin-1-yl)-1-hydroxypropan-2-(R)-ylcarbamoyl)(2,4-dichlorophenyl)methyl) furan-2-carboxamide]
< 100 nM | C[C@@H](CNc1cccc(F)c1)NC(=O)[C@H](CC1CCCCC1)NC(=O)c1ccc(-c2cccc(F)c2)o1 [Compound 99, 5-(3-Fluoro-phenyl)-furan-2-carboxylic acid {2-cyclohexyl-1-(S)-[2-(3-fluoro-phenylamino)-1-(S)-methyl-ethylcarbamoyl]-ethyl}-amide]
< 1000 nM | C[C@@H](CNc1cc(Cl)ccc1F)NC(=O)[C@H](CC1CCCCC1)NC(=O)c1ccc(-c2cccc(F)c2)o1 [Compound 97, 5-(3-Fluoro-phenyl)-furan-2-carboxylic acid {1-(S)-[2-(5-chloro-2-fluoro-phenylamino)-1-(S)-methyl-ethylcarbamoyl]-2-cyclohexyl-ethyl}-amide]
< 10000 nM | COc1ccc(NC(C)CNC(=O)[C@H](CC(C)C)NC(=O)c2cccc(C)c2)cc1 (mixture of isomers) [Compound 20, N-{1-(S)-[2-(4-Methoxy-phenylamino)-propylcarbamoyl]-3-methyl-butyl}-3-methyl-benzamide]
< 100 nM | C[C@@H](CNc1ccc(OC(F)(F)F)cc1)NC(=O)[C@H](CC(C)(C)C)NC(=O)c1ccc(-c2cccc(F)c2)o1 [Compound 127, 5-(3-Fluoro-phenyl)-furan-2-carboxylic acid {3,3-dimethyl-1-(S)-[1-(S)-methyl-2-(4-trifluoromethoxy-phenylamino)-ethylcarbamoyl]-butyl}-amide]
< 100 nM | C[C@@H](CNc1ccc(OC(F)(F)F)cc1)NC(=O)[C@H](CC1CCCCC1)NC(=O)c1nc(-c2cccc(F)c2)no1 [Compound 108, 3-(3-Fluoro-phenyl)-[1,2,4]oxadiazole-5-carboxylic acid {2-cyclohexyl-1-(S)-[1-(S)-methyl-2-(4-trifluoromethoxy-phenylamino)-ethylcarbamoyl]-ethyl}-amide]

Molecule | Ki
(S)-{2-Cyclohexyl-1-[2-(5-fluoro-2,3-dihydro-indol-1-yl)-ethylcarbamoyl]-ethyl}-carbamic acid benzyl ester [Compound 220] | < 1000 nM
